In patent US20230150978A1, “QUINAZOLINONE DERIVATIVES AND USES THEREOF FOR TREATING A CANCER” (ENYO PHARMA, priority 2020, published 2023):

Experiments:
Calreticulin = Calreticulin release (ER to plasma membrane translocation) screen, Nano-Glo HiBiT extracellular detection; type: cell-based; conditions: Homo sapiens, MDA-MB-231, MDA-MB-231 cells stably expressing Calreticulin-HiBiT; extracellular luminescence; read-out: CalR EC50
HMGB1 = HMGB1 release screen, Nano-Glo HiBiT extracellular detection; type: cell-based; conditions: Homo sapiens, MDA-MB-231, MDA-MB-231 cells stably expressing HMGB1-HiBiT; extracellular luminescence

| EC50 (Calreticulin) | EC50 (HMGB1) | melting point | SMILES |
| --- | --- | --- | --- |
| 9.06 µM | 15.1 µM | 195 to 203 °C | COc1cccc2c1CN(Cc1nc3ccc(Cl)cc3c(=O)[nH]1)CC2 [Ex. #130, 6-chloro-2-[(8-methoxy-3,4-dihydro-1H-isoquinolin-2-yl)methyl]-3H-quinazolin-4-one] |
| 7.56 µM | 4.66 µM | 184 to 196 °C | O=c1[nH]c(CN2CCc3ccccc32)nc2ccc(F)cc12 [Ex. #88, 6-fluoro-2-(indolin-1-ylmethyl)-3H-quinazolin-4-one] |
| 12.8 µM | 11.7 µM | 190 to 209 °C | COc1ccc2nc(CN3CC(CO)c4ccccc43)[nH]c(=O)c2c1 (stereo not drawn) [Ex. #9, 2-[[3-(hydroxymethyl)indolin-1-yl]methyl]-6-methoxy-3H-quinazolin-4-one] |
| 0.54 µM | 6.06 µM | 204 to 218 °C | COc1ccc2nc(CN3CCc4c(cccc4OC)C3)[nH]c(=O)c2c1 [Ex. #17, 6-methoxy-2-[(5-methoxy-3,4-dihydro-1H-isoquinolin-2-yl)methyl]-3H-quinazolin-4-one] |
| 0.102 µM | 0.109 µM | 222 to 236 °C | COc1ccc2nc(CN3CCCc4cccc(F)c43)[nH]c(=O)c2c1 [Ex. #11, 2-[(8-fluoro-3,4-dihydro-2H-quinolin-1-yl)methyl]-6-methoxy-3H-quinazolin-4-one] |
| 0.323 µM | 0.425 µM | 229 to 235 °C | COc1ccc2nc(CN3CCc4ccc(F)cc43)[nH]c(=O)c2c1 [Ex. #7, 2-[(6-fluoroindolin-1-yl)methyl]-6-methoxy-3H-quinazolin-4-one] |
| 8.16 µM | 14 µM | 211 to 233 °C | COc1ccc2nc(CN3CCc4c(N)cccc4C3)[nH]c(=O)c2c1 [Ex. #133, 2-[(5-amino-3,4-dihydro-1H-isoquinolin-2-yl)methyl]-6-methoxy-3H-quinazolin-4-one] |
| 0.339 µM | 0.429 µM | 191 to 206 °C | COc1ccc2nc(CN3CCCCc4ccccc43)[nH]c(=O)c2c1 [Ex. 22, 6-methoxy-2-(2,3,4,5-tetrahydro-1-benzazepin-1-ylmethyl)-3H-quinazolin-4-one] |
| 0.941 µM | 1.26 µM | 163 to 176 °C | CC1(C)CN(Cc2nc3ccc(Cl)cc3c(=O)[nH]2)c2ccccc21 [Ex. #40, 6-chloro-2-[(3,3-dimethylindolin-1-yl)methyl]-3H-quinazolin-4-one] |
| 0.796 µM | 0.801 µM | 145 to 167 °C | COc1cc2c(=O)[nH]c(CN3CC(C)(C)c4ccccc43)nc2cn1 [Ex. #79, 2-[(3,3-dimethylindolin-1-yl)methyl]-6-methoxy-3H-pyrido[3,4-d]pyrimidin-4-one] |
| 9.86 µM | 10.6 µM | 155 to 165 °C | COCCCOc1ccc2nc(CN3CC(C)(C)c4ccccc43)[nH]c(=O)c2c1 [Ex. #96, 2-[(3,3-dimethylindolin-1-yl)methyl]-6-(3-methoxypropoxy)-3H-quinazolin-4-one] |
